Laboratory results as given in ChEMBL document CHEMBL1138766, “Synthesis and biological evaluation of new acinetoferrin homologues for use as iron transport probes in mycobacteria” (2004).

These molecules were tested on Mycobacterium avium (assay: Growth index for Mycobacterium avium sub species paratuberculosis was measured relative to mycobactin J).
Assay type: functional
In the case of CCCCCCCCCCCCC/C=C/C(=O)N(O)CCCC[C@H](NC(=O)[C@@H]1CCC(c2ccccc2O)=N1)C(=O)OC(C(C)C)C(C)C(=O)N[C@H]1CCCCN(O)C1=O (stereo partly specified), the “Growth Index” value is reported as 1. With CCCCC/C=C/C(=O)N(O)CCCCCNC(=O)CC(O)(CC(=O)NCCCCCN(O)C(=O)/C=C/CCCCC)C(=O)O the “Growth Index” value was 0.96. CCCCC/C=C/C(=O)N(O)CCCCCCNC(=O)CC1(O)CC(=O)N(CCCCCCN(O)C(=O)/C=C/CCCCC)C1=O (stereo unspecified) was tested, and the “Growth Index” value was 1.01. For CCCCC/C=C/C(=O)N(O)CCCCCNC(=O)CC1(O)CC(=O)N(CCCCCN(O)C(=O)/C=C/CCCCC)C1=O (stereo unspecified), the “Growth Index” value was 1.17. For CCCCC/C=C/C(=O)N(O)CCCCCCNC(=O)CC(O)(CC(=O)NCCCCCCN(O)C(=O)/C=C/CCCCC)C(=O)O, the “Growth Index” value was 0.95. With CC(=O)N(O)CCCCCNC(=O)CCC(=O)N(O)CCCCCNC(=O)CCC(=O)N(O)CCCCCN [DEFEROXAMINE] the “Growth Index” value was 1.09.
